Common to all, as to assay: DTP human tumour cell line panel, 48 h
The test system of assay [1] is A498 renal.
For assay [2], the system named is CCRF-CEM leukemia.
Assay [3] relates to HCC-2998 colon.
The test system of assay [4] is NCI-H460 lung.
Assay [5] has as its system OVCAR-3 ovarian.
Assay [6] relates to OVCAR-5 ovarian.
Assay [7] deals with U251 CNS.
For assay [8], the system named is IGROV1 ovarian.
For assay [9], the system named is DU-145 prostate.
Assay [10] relates to SR leukemia.

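Briefly, cells in 96-well plates were exposed to five compound concentrations for 48 h, and endpoints were estimated by linear interpolation. GI50 is the concentration that inhibits growth by half. TGI marks complete inhibition of growth.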 Where a SMILES comes first, the peptide text is derived from it. Bridges are numbered along the chain shown (N, C = ends). Roman numbers before positions name the chains, in order. [ ]: non-standard residue; d: D form. The star is where a group is joined. Quinoxaline2carbonyl = O=C(c1cnc2ccccc2n1)*; NMeV = CN[CH](C(=O)O)C(C)C; NMeC = CN[CH](CS)C(=O)O

The term TGI denotes the concentration giving total growth inhibition. Low readings indicate more potent growth arrest, high ones less potent growth arrest. Take `CC1NC(=O)C(NC(=O)c2cnc3ccccc3n2)COC(=O)C(C(C)C)N(C)C(=O)C2CSSCC(C(=O)N(C)C(C(C)C)C(=O)OCC(NC(=O)c3cnc4ccccc4n3)C(=O)NC(C)C(=O)N2C)N(C)C1=O` (stereo not given) (I: Quinoxaline2carbonyl-SA[NMeC][NMeV] / II: Quinoxaline2carbonyl-SA[NMeC][NMeV]; ester I:1-II:C, I:C-II:1; disulfide I:3-II:3; configuration not given here): the TGI is under 0.01 µM in assay [1]; 0.229 µM in [2]; under 0.01 µM in assay [3]; 2.23 µM in [4]; over 100 µM in assay [5]; over 4.64 µM in assay [6]. For the same compound, the TGI in [7] was over 31.8 µM.
`CC1CN1c1c(C(=O)/C=C/c2ccccc2)c(-c2ccccc2)nn(C)c1=O` (stereo not given): the TGI in [1] was 32.4 µM; in [2] it was 37.9 µM; in assay [3], 29.9 µM; in assay [8], 59.8 µM; in [4], 41.2 µM; in assay [5] it was 40.8 µM. Also, the TGI was 37 µM in assay [6] and 31.6 µM in assay [7].
Regarding `Cc1cc2c(c(C(=O)O)c1C)-c1cccc(F)c1C2=O`, the TGI in assay [2], in assay [3], in assay [8], in assay [4], in assay [5] and in assay [6] was over 100 µM throughout. For the same compound, the TGI in assay [7] was over 100 µM.
Broadly, the GI50 is the concentration that inhibits growth by half. For `CCCCCn1sc(=O)n(Cc2ccc(CNC(=O)OCc3ccc4cccc(O)c4n3)cc2)c1=O`, the GI50 was 1.73 µM in assay [1]; 0.489 µM in assay [2]; 1.6 µM in assay [9]; 2.09 µM in [3]; 1.17 µM in assay [8]; 1.8 µM in assay [4]. Further, the GI50 in assay [5] is 1.26 µM; in [6], 1.68 µM; in assay [7], 1.77 µM. The TGI in assay [1] is 4.58 µM; in assay [2] it was over 100 µM; in [9], 3.09 µM; in assay [3], 4.52 µM; in [8] it was 2.65 µM; in assay [4], 3.78 µM. Moreover, the values for the TGI in assay [5], in assay [6] and in assay [7] were 2.67 µM, 3.09 µM and 3.45 µM, respectively.
With `CC1(C)C2CCC13CS(=O)(=O)N1O[C@]13C(=O)O2` (stereo not given in full), the TGI in assay [1], in [3], in assay [8], in assay [4], in assay [5] and in [6] was over 100 µM each time. Besides, the TGI in assay [10] and in assay [7] was over 100 µM throughout.
Regarding `COc1ccc(OC)c(C2SCC(=O)N2NC(=O)C(O)c2ccccc2)c1` (stereo not given), the GI50 in assay [1], in [2], in assay [9], in assay [3], in [8] and in assay [4] was over 100 µM in each case. Further, the GI50 in assay [5], in assay [6] and in assay [7] was over 100 µM each time. Further, the TGI in [1], in assay [2], in assay [9], in [3], in assay [8] and in [4] was over 100 µM in each case. In addition, the TGI in assay [5], in assay [6] and in assay [7] was over 100 µM in each case.
On to `CCN(CCO)CC(C)Nc1ccc([N+](=O)[O-])c2sc3ccccc3c(=O)c12` (stereo not given), for which the GI50 in assay [1] was 0.252 µM; in assay [2], 1 µM; in [9] it was 1.24 µM; in assay [8], 0.34 µM; in [4], 0.379 µM; in assay [5] it was 2.96 µM. Moreover, the values for the GI50 in [6] and in [7] were 3.68 µM and 0.716 µM, respectively. The TGI was 9.54 µM in assay [1]; 7.19 µM in assay [2]; 4.9 µM in assay [9]; 1.6 µM in [8]; 2.27 µM in assay [4]; 12.3 µM in [5]. The results for the TGI in assay [6] and in assay [7] were 18.5 µM and 3.35 µM, respectively.
For `CCCCCCN(N)C(=O)CC#N`, the TGI in [1], in [2], in [3], in assay [8], in assay [4] and in assay [5] was over 100 µM throughout. For the same compound, the TGI in assay [6] and in assay [7] was over 100 µM each time.
With `COc1cc2nc(NCCCCCNC(=O)c3ccco3)nc(N)c2cc1OC`, the TGI was over 100 µM in assay [1]; 88.2 µM in assay [2]; 38.2 µM in assay [3]; over 100 µM in assay [8]; over 100 µM in assay [4]; 62.5 µM in assay [5]. Further, the TGI in assay [6] is over 100 µM; in assay [7] it was 42.5 µM.
For the compound `CCCCCCCCCCCCCP(=O)(O)NCC(N)=O`, the TGI in [1], in [2], in assay [3], in assay [8], in assay [4] and in [5] was over 100 µM each time. In addition, the TGI in assay [6] and in assay [7] was over 100 µM in each case.
As for `COC(CN1C=C(Sc2ccccc2)CC1)OC`, the TGI in assay [1] is over 100 µM; in assay [2] it was 62.8 µM; in assay [3], over 100 µM; in assay [8] it was over 100 µM; in assay [4], over 100 µM; in assay [5], 63.6 µM. For the same compound, in [6], the TGI was over 100 µM.
Take `O=C([CH-]C(=O)c1ccccc1)c1ccccc1.O=C([CH-]C(=O)c1ccccc1)c1ccccc1.[OH-].[OH-].[Ti+4]`: the GI50 in assay [1] is 40.5 µM; in [3], over 100 µM; in assay [8], over 100 µM; in assay [4] it was 60.3 µM; in assay [5], 51.1 µM; in assay [6] it was over 100 µM. The GI50 in assay [7] is 18.1 µM. The TGI in assay [1], in assay [3], in assay [8], in assay [4], in [5] and in assay [6] was over 100 µM in each case. The compound further returned a TGI in [7] of over 100 µM.
Take `CN(C)CCC(/C=C/c1ccccc1)=N\Nc1ccc(Cl)cc1Cl`: the TGI was determined as 30.5 µM in [1]; 25.8 µM in assay [2]; 20.9 µM in assay [8]; 28.1 µM in assay [4]; 27.5 µM in assay [5]; 28.8 µM in assay [6]. For the same compound, the values for the TGI in assay [10] and in assay [7] were 23.9 µM and 24.7 µM, respectively.
